Target: T1, full length AKT E17K (Homo sapiens, UniProt P31749, E17K)
T1 construct: host or cells: HEK-293 (ATCC CRL-1573)
Assay: NanoBRET Target Engagement (TE) Assay
Format: cell-based
Conditions: competitive displacement of tracer in cells, read-out: AKT1 E17K IC50
How it was run: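 Compound and tracer incubated 2 h before luminescence at donor 450 nm and acceptor 600 nm, with extracellular signal inhibited. EC50 by sigmoidal variable-slope regression.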

T1 sequence (P31749 whole entry E17K): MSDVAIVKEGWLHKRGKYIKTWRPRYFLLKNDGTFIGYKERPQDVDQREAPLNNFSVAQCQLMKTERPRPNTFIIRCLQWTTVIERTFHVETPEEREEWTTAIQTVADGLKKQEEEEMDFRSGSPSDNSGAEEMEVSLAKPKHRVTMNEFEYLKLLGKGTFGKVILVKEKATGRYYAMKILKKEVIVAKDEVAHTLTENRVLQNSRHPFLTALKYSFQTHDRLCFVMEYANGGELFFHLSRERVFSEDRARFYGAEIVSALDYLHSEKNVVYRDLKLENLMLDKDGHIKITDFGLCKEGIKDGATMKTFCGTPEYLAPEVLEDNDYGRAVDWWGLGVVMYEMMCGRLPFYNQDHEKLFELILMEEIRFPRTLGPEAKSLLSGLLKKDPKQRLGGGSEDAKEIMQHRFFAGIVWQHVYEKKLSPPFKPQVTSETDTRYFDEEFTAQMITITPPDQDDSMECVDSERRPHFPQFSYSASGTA

| Structure (SMILES) | IC50 |
| --- | --- |
| N#Cc1nccc(NC2CCN(Cc3ccc(-n4c(-c5cccnc5N)nc5ccc(-c6ccc(OCF)nc6)nc54)cc3)CC2)n1 [Example 606, 4-((1-(4-(2-(2-Aminopyridin-3-yl)-5-(6-(fluoromethoxy)pyridin-3-yl)-3H-imidazo[4,5-b]pyridin-3-yl)benzyl)piperidin-4-yl)amino)pyrimidine-2-carbonitrile] | < 15 nM |
| N#Cc1nccc(NC2CCN(Cc3ccc(-n4c(-c5cccnc5N)nc5ccc(-c6ccc(=O)n(CF)c6)nc54)cc3)CC2)n1 [Example 607, 4-((1-(4-(2-(2-Aminopyridin-3-yl)-5-(1-(fluoromethyl)-6-oxo-1,6-dihydropyridin-3-yl)-3H-imidazo[4,5-b]pyridin-3-yl)benzyl)piperidin-4-yl)amino)pyrimidine-2-carbonitrile] | 15 to 60 nM |
| [2H]C([2H])([2H])n1ncc(-c2ccc3nc(-c4cccnc4N)n(-c4ccc(CN5CCC(Nc6ccnc(C#N)n6)CC5)cc4)c3n2)n1 [Example 608, 4-((1-(4-(2-(2-Aminopyridin-3-yl)-5-(2-(methyl-d3)-2H-1,2,3-triazol-4-yl)-3H-imidazo[4,5-b]pyridin-3-yl)benzyl)piperidin-4-yl)amino)pyrimidine-2-carbonitrile] | < 15 nM |
| CCn1ncc(-c2ccc3nc(-c4cccnc4N)n(-c4ccc(CN5CCC(Nc6ccnc(C#N)n6)CC5)cc4)c3n2)n1 [Example 609, 4-((1-(4-(2-(2-Aminopyridin-3-yl)-5-(2-ethyl-2H-1,2,3-triazol-4-yl)-3H-imidazo[4,5-b]pyridin-3-yl)benzyl)piperidin-4-yl)amino)pyrimidine-2-carbonitrile] | < 15 nM |
| CC(C)n1ncc(-c2ccc3nc(-c4cccnc4N)n(-c4ccc(CN5CCC(Nc6ccnc(C#N)n6)CC5)cc4)c3n2)n1 [Example 610, 4-((1-(4-(2-(2-Aminopyridin-3-yl)-5-(2-isopropyl-2H-1,2,3-triazol-4-yl)-3H-imidazo[4,5-b]pyridin-3-yl)benzyl)piperidin-4-yl)amino)pyrimidine-2-carbonitrile] | < 15 nM |
| CC(C)n1cc(-c2ccc3nc(-c4cccnc4N)n(-c4ccc(CN5CCC(Nc6ccnc(C#N)n6)CC5)cc4)c3n2)nn1 [Example 611, 4-((1-(4-(2-(2-Aminopyridin-3-yl)-5-(1-isopropyl-1H-1,2,3-triazol-4-yl)-3H-imidazo[4,5-b]pyridin-3-yl)benzyl)piperidin-4-yl)amino)pyrimidine-2-carbonitrile] | < 15 nM |
| [2H]C([2H])([2H])c1nn(C)nc1-c1ccc2nc(-c3cccnc3N)n(-c3ccc(CN4CCC(Nc5ccnc(C#N)n5)CC4)cc3)c2n1 [Example 612, 4-((1-(4-(2-(2-Aminopyridin-3-yl)-5-(2-methyl-5-(methyl-d3)-2H-1,2,3-triazol-4-yl)-3H-imidazo[4,5-b]pyridin-3-yl)benzyl)piperidin-4-yl)amino)pyrimidine-2-carbonitrile] | < 15 nM |
| N#Cc1nccc(NC2CCN(Cc3ccc(-n4c(-c5cccnc5N)nc5ccc(-c6cn[nH]n6)nc54)cc3)CC2)n1 [Example 613, 4-((1-(4-(2-(2-Aminopyridin-3-yl)-5-(2H-1,2,3-triazol-4-yl)-3H-imidazo[4,5-b]pyridin-3-yl)benzyl)piperidin-4-yl)amino)pyrimidine-2-carbonitrile] | < 15 nM |
| Cc1nn(C)nc1-c1ccc2nc(-c3cccnc3N)n(-c3ccc(CN4CCC(Nc5ccnc(C#N)n5)CC4)cc3)c2n1 [Example 614, 4-((1-(4-(2-(2-Aminopyridin-3-yl)-5-(2,5-dimethyl-2H-1,2,3-triazol-4-yl)-3H-imidazo[4,5-b]pyridin-3-yl)benzyl)piperidin-4-yl)amino)pyrimidine-2-carbonitrile] | < 15 nM |
| N#Cc1nccc(NC2CCN(Cc3ccc(-n4c(-c5cccnc5N)nc5ccc(-c6cnn(C7CC7)n6)nc54)cc3)CC2)n1 [Example 615, 4-((1-(4-(2-(2-Aminopyridin-3-yl)-5-(2-cyclopropyl-2H-1,2,3-triazol-4-yl)-3H-imidazo[4,5-b]pyridin-3-yl)benzyl)piperidin-4-yl)amino)pyrimidine-2-carbonitrile] | < 15 nM |
| [2H]c1nn(C)nc1-c1ccc2nc(-c3cccnc3N)n(-c3ccc(CN4CCC(Nc5ccnc(C#N)n5)CC4)cc3)c2n1 [Example 616, 4-((1-(4-(2-(2-Aminopyridin-3-yl)-5-(2-methyl-2H-1,2,3-triazol-4-yl-5-d)-3H-imidazo[4,5-b]pyridin-3-yl)benzyl)piperidin-4-yl)amino)pyrimidine-2-carbonitrile] | < 15 nM |
| N#Cc1nccc(NC2CCN(Cc3ccc(-n4c(-c5cccnc5N)nc5ccc(-c6ccc(=O)n(C(F)F)c6)nc54)cc3)CC2)n1 [Example 617, 4-((1-(4-(2-(2-Aminopyridin-3-yl)-5-(1-(difluoromethyl)-6-oxo-1,6-dihydropyridin-3-yl)-3H-imidazo[4,5-b]pyridin-3-yl)benzyl)piperidin-4-yl)amino)pyrimidine-2-carbonitrile] | 15 to 60 nM |
| N#Cc1nccc(NC2CCN(Cc3ccc(-n4c(-c5cccnc5N)nc5ccc(-c6cnn(CF)n6)nc54)cc3)CC2)n1 [Example 618, 4-((1-(4-(2-(2-Aminopyridin-3-yl)-5-(2-(fluoromethyl)-2H-1,2,3-triazol-4-yl)-3H-imidazo[4,5-b]pyridin-3-yl)benzyl)piperidin-4-yl)amino)pyrimidine-2-carbonitrile] | < 15 nM |
| N#Cc1nccc(NC2CCN(Cc3ccc(-n4c(-c5cccnc5N)nc5ccc(-c6cn(CF)nn6)nc54)cc3)CC2)n1 [Example 619, 4-((1-(4-(2-(2-Aminopyridin-3-yl)-5-(1-(fluoromethyl)-1H-1,2,3-triazol-4-yl)-3H-imidazo[4,5-b]pyridin-3-yl)benzyl)piperidin-4-yl)amino)pyrimidine-2-carbonitrile] | < 15 nM |
| N#Cc1nccc(NC2CCN(Cc3ccc(-n4c(-c5cccnc5N)nc5ccc(-c6cnn(C(F)F)n6)nc54)cc3)CC2)n1 [Example 620, 4-((1-(4-(2-(2-Aminopyridin-3-yl)-5-(2-(difluoromethyl)-2H-1,2,3-triazol-4-yl)-3H-imidazo[4,5-b]pyridin-3-yl)benzyl)piperidin-4-yl)amino)pyrimidine-2-carbonitrile] | < 15 nM |
| [2H]C([2H])([2H])n1ncc(-c2ccc3nc(-c4nccnc4N)n(-c4ccc(CN5CCC(Nc6ccnc(C#N)n6)CC5)cc4)c3n2)n1 [Example 621, 4-((1-(4-(2-(3-Aminopyrazin-2-yl)-5-(2-(methyl-d3)-2H-1,2,3-triazol-4-yl)-3H-imidazo[4,5-b]pyridin-3-yl)benzyl)piperidin-4-yl)amino)pyrimidine-2-carbonitrile] | < 15 nM |
| N#Cc1nccc(NC2CCN(Cc3ccc(-n4c(-c5conc5N)nc5ccc(-c6ccc(F)cn6)nc54)cc3)CC2)n1 [Example 622, 4-((1-(4-(2-(3-Aminoisoxazol-4-yl)-5-(5-fluoropyridin-2-yl)-3H-imidazo[4,5-b]pyridin-3-yl)benzyl)piperidin-4-yl)amino)pyrimidine-2-carbonitrile] | 60 to 600 nM |
| [2H]C([2H])(F)Oc1ccc(-c2ccc3nc(-c4cccnc4N)n(-c4ccc(CN5CCC(Nc6ccnc(C#N)n6)CC5)cc4)c3n2)cn1 [Example 623, 4-((1-(4-(2-(2-Aminopyridin-3-yl)-5-(6-(fluoromethoxy-d2)pyridin-3-yl)-3H-imidazo[4,5-b]pyridin-3-yl)benzyl)piperidin-4-yl)amino)pyrimidine-2-carbonitrile] | < 15 nM |
| [2H]C([2H])(F)n1cc(-c2ccc3nc(-c4cccnc4N)n(-c4ccc(CN5CCC(Nc6ccnc(C#N)n6)CC5)cc4)c3n2)ccc1=O [Example 624, 4-((1-(4-(2-(2-Aminopyridin-3-yl)-5-(1-(fluoromethyl-d2)-6-oxo-1,6-dihydropyridin-3-yl)-3H-imidazo[4,5-b]pyridin-3-yl)benzyl)piperidin-4-yl)amino)pyrimidine-2-carbonitrile] | 15 to 60 nM |
| CCn1cc(-c2ccc3nc(-c4cccnc4N)n(-c4ccc(CN5CCC(Nc6ccnc(C#N)n6)CC5)cc4)c3n2)nn1 [Example 625, 4-((1-(4-(2-(2-Aminopyridin-3-yl)-5-(1-ethyl-1H-1,2,3-triazol-4-yl)-3H-imidazo[4,5-b]pyridin-3-yl)benzyl)piperidin-4-yl)amino)pyrimidine-2-carbonitrile] | < 15 nM |
| N#CCn1ncc(-c2ccc3nc(-c4cccnc4N)n(-c4ccc(CN5CCC(Nc6ccnc(C#N)n6)CC5)cc4)c3n2)n1 [Example 626, 4-((1-(4-(2-(2-Aminopyridin-3-yl)-5-(2-(cyanomethyl)-2H-1,2,3-triazol-4-yl)-3H-imidazo[4,5-b]pyridin-3-yl)benzyl)piperidin-4-yl)amino)pyrimidine-2-carbonitrile] | < 15 nM |
| N#Cc1nccc(NC2CCN(Cc3ccc(-n4c(-c5nccnc5N)nc5ccc(-c6cnn(CF)n6)nc54)cc3)CC2)n1 [Example 627, 4-((1-(4-(2-(3-Aminopyrazin-2-yl)-5-(2-(fluoromethyl)-2H-1,2,3-triazol-4-yl)-3H-imidazo[4,5-b]pyridin-3-yl)benzyl)piperidin-4-yl)amino)pyrimidine-2-carbonitrile] | < 15 nM |
| N#Cc1nccc(NC2CCN(Cc3ccc(-n4c(-c5nccnc5N)nc5ccc(-c6cn(CF)nn6)nc54)cc3)CC2)n1 [Example 628, 4-((1-(4-(2-(3-Aminopyrazin-2-yl)-5-(1-(fluoromethyl)-1H-1,2,3-triazol-4-yl)-3H-imidazo[4,5-b]pyridin-3-yl)benzyl)piperidin-4-yl)amino)pyrimidine-2-carbonitrile] | < 15 nM |
| CCn1ncc(-c2ccc3nc(-c4nccnc4N)n(-c4ccc(CN5CCC(Nc6ccnc(C#N)n6)CC5)cc4)c3n2)n1 [Example 629, 4-((1-(4-(2-(3-Aminopyrazin-2-yl)-5-(2-ethyl-2H-1,2,3-triazol-4-yl)-3H-imidazo[4,5-b]pyridin-3-yl)benzyl)piperidin-4-yl)amino)pyrimidine-2-carbonitrile] | < 15 nM |
